{
  "source": "patent US20220106282A1",
  "about": "“TREATMENT FOR BREAST CANCER, INCLUDING TRIPLE-NEGATIVE BREAST CANCER” (priority 2018, published 2022)",
  "key": {"[1]": {"tested_on": "breast tumors in female FVB mice transgenic for HER-2/neu", "assay": "Antitumor activity on model of multiple breast tumors in HER-2/neu transgenic mice", "method": "Two adenocarcinoma subtypes can be differentiated, in particular ER+, PR−, and ER−, PR− [2].\nThe study was carried out in female FVB mice transgenic for HER-2/neu by conventional category; the strain was obtained from the mouse bank Charles River Laboratories (Italy). At the beginning of the study the animals were 21-41 weeks old having weight of 25 to 30 g.\nThe study medicament was administered i.g. using a metal atraumatic gavage (with the procedure corresponds to the oral route of administration in clinical settings). The medicament was administered in a single daily dose (20 mg/kg of body weight) and 5-fold daily dose of 100 mg/kg of body weight. Ex tempore solutions of the medicament for administration were prepared in olive oil (refined olive oil supplemented with unrefined extra virgin olive oil available under Global Village “Clasico” trademark, lot L:183351116, expiry date 26 Apr. 2020, BAIEO, Spain). The administered volume was 0.1 ml per 10 g of a mouse body weight (0.2 ml of a ready-to-use formulation for a mouse of 20 g). The medicament administration was started 24 hours after the randomization. The duration of the administration course was 27-28 days.\nThis dose corresponds to a human daily dose of 20 mg/kg.\nThe control groups were given the olive oil (placebo).\nThe evaluation criteria included the clinical observation data, animals body weights, time of death (if applicable), tumor growth over time, pathomorphological examination data (verification of a neoplasm during autopsy, assessment of toxic effects by macroscopic presentation of changes in the internal organs).\nThe animals body weights were recorded before the first administration of the medicaments and then twice per week using a verified high-speed electronic laboratory balance Ohaus Scout Pro (USA) with a maximum load of 2000 g and a measurement step of 0.1 g.\nMacroscopically detectable tumor nodes were measured in animals once per week during weighing process. Two linear dimensions including the largest one and the largest rectangular to the former were recorded for each of the nodes. The largest dimension was taken as a length (a) and the second dimension as a width (b) of the tumor nodes. A tumor volume was calculated by the expression as follows: […]\nThe efficacy of the therapy was assessed by recording a change in the average tumor volume, tumor growth inhibition (TGI), and the average total tumor volumes and its change over time in each of the mice.\nThe percent of tumor growth inhibition was calculated by the expression as follows:\nTGI=(Vctrl−Vexp)/Vctrl×100(%),\nwhere Vctrl is an average tumor volume in a control group, and Vexp is an average tumor volume in an experimental group.\nThe primary data from individual forms were transferred to Microsoft Excel 2007 books. The group arithmetic average (M) and standard deviation (m) were calculated for all quantitative data. The statistical analysis was performed using the statistical software GraphPad Prism 6.0. The differences between the groups were assessed using ANOVA regression analysis and the Fisher's exact test."}, "[2]": {"tested_on": "FVB mice transgenic for HER-2/neu", "assay": "Acute oral toxicity, OECD 423 test", "assay_type": "in vivo", "method": "12 female mice were used in the experiment.\nThe dosage form for administration was prepared ex tempore.\nNo deaths were detected either.\nFurther the observations were made once per day.\nThe medicament was administered in 2 steps with a break of 3 hours in a volume of 0.1 ml per 10 g of a body weight per step at the concentration of 100 mg/ml, because the suspension in oil is thicker at higher concentrations and precludes the medicament to be administered through a gavage. […] Regardless of the group the width of the palpebral fissure of the animals was almost unchanged during the entire observation period. No pathological discharges from the eyes were detected. The nose was pink, moderately moist without pathological discharges. The fur of all mice was neat and shiny without bald spots. A 3% decrease of the animals body weight was registered on Day 2 and a 4% weight decrease on Day 7 from the initial weight (Table 3)."}, "[3]": {"settings": "100 mg/kg i.g. daily, Day 27 vs Day −1"}},
  "note": "Where “and” joins values, the source holds several entries; their conditions need not be identical. Identical values can stand only once. Marks after values point to notes of the source that are not given here.",
  "data": [
    {"smiles": "C[C@H]1Oc2cc(OS(N)(=O)=O)ccc2[C@H]2CC[C@]3(C)C(=O)CCC[C@H]3[C@H]21", "note": "[compound of formula (1), 3-O-sulphamoyloxy-7β-methyl-D-homo-6-oxa-8α-estra-1,3,5(10)-trien-17a-one]", "values": [
      {"measurement": "Average volume of tumors present at the beginning of the experiment (M)", "setting": "[1]; 100 mg/kg i.g. daily, Day 6", "value": 0.38, "unit": "cm^3"},
      {"measurement": "Relative change of the average total volume of tumors to that of Day −1 (M)", "setting": "[1]; 100 mg/kg i.g. daily, Day 6", "value": 26, "unit": "%"},
      {"measurement": "TGI (average total tumor volume)", "setting": "[1]; 100 mg/kg i.g. daily, Day 6", "value": "−38", "unit": "%"},
      {"measurement": "TGI (average tumor volume)", "setting": "[1]; 100 mg/kg i.g. daily, Day 6", "value": "−27", "unit": "%"},
      {"measurement": "Average total volume of tumors in mice (M)", "setting": "[1]; 100 mg/kg i.g. daily, Day 13", "value": 1.15, "unit": "cm^3"},
      {"measurement": "Average volume of tumors present at the beginning of the experiment (M)", "setting": "[1]; 100 mg/kg i.g. daily, Day 13", "value": 0.46, "unit": "cm^3"},
      {"measurement": "Relative change of the average total volume of tumors to that of Day −1 (M)", "setting": "[1]; 100 mg/kg i.g. daily, Day 13", "value": "68** %"},
      {"measurement": "TGI (average total tumor volume)", "setting": "[1]; 100 mg/kg i.g. daily, Day 13", "value": 11, "unit": "%"},
      {"measurement": "TGI (average tumor volume)", "setting": "[1]; 100 mg/kg i.g. daily, Day 13", "value": 18, "unit": "%"},
      {"measurement": "Average total volume of tumors in mice (M)", "setting": "[1]; 100 mg/kg i.g. daily, Day 20", "value": 1.36, "unit": "cm^3"},
      {"measurement": "Average volume of tumors present at the beginning of the experiment (M)", "setting": "[1]; 100 mg/kg i.g. daily, Day 20", "value": 0.55, "unit": "cm^3"},
      {"measurement": "Relative change of the average total volume of tumors to that of Day −1 (M)", "setting": "[1]; 100 mg/kg i.g. daily, Day 20", "value": "139* %"},
      {"measurement": "TGI (average total tumor volume)", "setting": "[1]; 100 mg/kg i.g. daily, Day 20", "value": 10, "unit": "%"},
      {"measurement": "TGI (average tumor volume)", "setting": "[1]; 100 mg/kg i.g. daily, Day 20", "value": 17, "unit": "%"},
      {"measurement": "Average total volume of tumors in mice (M)", "setting": "[1]; 100 mg/kg i.g. daily, Day 27", "value": 1.74, "unit": "cm^3"},
      {"measurement": "Average volume of tumors present at the beginning of the experiment (M)", "setting": "[1]; 100 mg/kg i.g. daily, Day 27", "value": 0.7, "unit": "cm^3"},
      {"measurement": "Relative change of the average total volume of tumors to that of Day −1 (M)", "setting": "[1]; 100 mg/kg i.g. daily, Day 27", "value": "198** %"},
      {"measurement": "TGI (average total tumor volume)", "setting": "[1]; 100 mg/kg i.g. daily, Day 27", "value": 15, "unit": "%"},
      {"measurement": "TGI (average tumor volume)", "setting": "[1]; 100 mg/kg i.g. daily, Day 27", "value": 21, "unit": "%"},
      {"measurement": "% of change from baseline (average total tumor volume)", "setting": "[1]; [3]", "value": 102, "unit": "%"},
      {"measurement": "% of change to the initial value (average tumor volume)", "setting": "[1]; [3]", "value": 106, "unit": "%"},
      {"measurement": "Average total volume of tumors in mice (M)", "setting": "[1]; 100 mg/kg i.g. daily, Day −1", "value": 0.86, "unit": "cm^3"},
      {"measurement": "Average volume of tumors present at the beginning of the experiment (M)", "setting": "[1]; 100 mg/kg i.g. daily, Day −1", "value": 0.34, "unit": "cm^3"},
      {"measurement": "Relative change of the average total volume of tumors to that of Day −1 (M)", "setting": "[1]; 100 mg/kg i.g. daily, Day −1", "value": 0, "unit": "%"},
      {"measurement": "TGI (average total tumor volume)", "setting": "[1]; 100 mg/kg i.g. daily, Day −1", "value": "−105", "unit": "%"},
      {"measurement": "TGI (average tumor volume)", "setting": "[1]; 100 mg/kg i.g. daily, Day −1", "value": "−89", "unit": "%"},
      {"measurement": "Average volume of new tumors, % less than that of the control group", "setting": "[1]; 100 mg/kg i.g. daily, end of observation", "value": 39, "unit": "%"},
      {"measurement": "Absolute number of new tumors", "setting": "[1]; 100 mg/kg i.g. daily, end of study", "value": 25},
      {"measurement": "Frequency of tumor stabilizations", "setting": "[1]; 100 mg/kg i.g. daily, end of study, volume not increased by more than 20%", "value": 16, "unit": "%"},
      {"measurement": "Average volume of new tumors at the end of the observation period (M)", "setting": "[1]; 100 mg/kg i.g. daily, listed as medicament", "value": "0.20±0.05 cm^3 and 0.20 cm^3"},
      {"measurement": "Tumor growth inhibition compared to Tamoxifen", "setting": "[1]; FVB mice transgenic for HER-2/neu with breast tumors", "value": "inhibits tumor growth to the same extent as clinically approved Tamoxifen"},
      {"measurement": "Signs of toxic damage to the internal organs at autopsy", "setting": "[1]; end of the experiment, 27-28 days of administration", "value": "No specific signs of toxic damage to the internal organs were detected"},
      {"measurement": "Body weight, individual mice", "setting": "[2]; 2000 mg/kg i.g. (title of Table 3), Day 1 (before administration), listed as medicament", "value": "26.0 and 28.4 and 27.7 and 26.2 (2×) and 28.3"},
      {"measurement": "Body weight, average", "setting": "[2]; 2000 mg/kg i.g., Day 1 (before administration)", "value": 27.1, "unit": "g"},
      {"measurement": "Body weight, individual mice", "setting": "[2]; 2000 mg/kg i.g., Day 2, listed as medicament, in g (unit assumed)", "value": "25.7 and 27.7 and 27.0 and 25.3 and 27.4 and 24.7"},
      {"measurement": "Body weight, individual mice", "setting": "[2]; 2000 mg/kg i.g., Day 7, listed as medicament, in g (unit assumed)", "value": "25.0 and 25.8 and 29.6 and 24.6 and 27.6 and 25.7"},
      {"measurement": "Body weight, individual mice", "setting": "[2]; 2000 mg/kg i.g., Day 14, listed as medicament, in g (unit assumed)", "value": "25.1 and 28.3 and 28.0 and 25.9 and 29.1 and 26.5"},
      {"measurement": "Decrease of body weight from the initial weight", "setting": "[2]; 2000 mg/kg, Day 2", "value": 3, "unit": "%"},
      {"measurement": "LD50", "setting": "[2]; oral (i.g.), OECD 423, listed as anti-cancer agent", "value": "> 5000", "unit": "mg/kg"},
      {"measurement": "Hazard category according to the OECD 423 test", "setting": "[2]; oral (i.g.), listed as anti-cancer agent", "value": 5, "unit": "th"},
      {"measurement": "Hazard category according to the OECD 423 test", "setting": "[2]; oral (i.g.), listed as medicament", "value": "5th or non-classified and 5th or unclassified"}
    ]}
  ]
}
